Measurements as given in US20240391923A1, “METHIONINE ADENOSYLTRANSFERASE 2A INHIBITOR FOR TREATING MTAP DELETION-TYPE CANCER” (SUZHOU GENHOUSE BIO CO., LTD., priority 2022, published 2024).
Where two headings read alike, the source gives them in different places. Values belong to the compound of their own block, whether it stands above or below them.

Key:
[1] = Pharmacokinetic test in mice (IV and PO); assay type: in vivo; conditions: mouse, plasma, BALB/c mice; for half-life: read-out: T½ (converted)
[2] = test system: SDMA in HCT116-MTAP-knockout cell line; test: Cell symmetric dimethylarginine (SDMA) test, In-cell Western, HCT116-MTAP-knockout; assay type: cell-based; conditions: Homo sapiens, 96 h
[3] = test system: HCT116-MTAP-knockout (−/−) cell strain; test: Tumor cell proliferation inhibition assay (CellTiter-Glo), HCT116-MTAP-knockout (-/-); assay type: cell-based; conditions: Homo sapiens, 120 h, 5-day treatment
Procedure, shortened: (§1)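 Cells seeded, then after 24 h treated with 10-point 1:3 dilutions from 10 μM top concentration, DMSO control. Cultured 5 days at 37 °C/5% CO2; growth inhibition from ATP level by CellTiter-Glo luminescence.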

DOHH-2 cell strain = test: Tumor cell proliferation inhibition assay (CellTiter-Glo), DOHH-2; assay type: cell-based; conditions: Homo sapiens, 120 h, DOHH-2 cells, 5-day treatment
Procedure: After the HCT116-MTAP-knockout (−/−) cell strain, the HCT116-MTAP wild-type(+/+)-cell strain, the DOHH-2 cell strain, or the Hut-78 cell strain was treated with the test compound for 5 days, the ATP level was measured using a CellTiter-Glo kit of Promega to evaluate the inhibition of the test compound against the growth of the tumor cell strain.
In the present application, the HCT116-MTAP-knockout (−/−) cell strain, the HCT116-MTAP wild-type (+/+)-cell strain, the DOHH-2 cell strain, or the Hut-78 cell strain was seeded into a 96-well cell culture plate at an appropriate cell density. After 24 h, the cells were treated using the test compounds diluted 1:3 fold at the highest concentration of 10 μM for 10 gradients, and a DMSO treatment group was set up separately. The cells were cultured in a 37° C./5% CO2 incubator for 5 days.

hERG potassium current = molecular target: T1, hERG potassium current (Homo sapiens, UniProt Q12809); test: hERG inhibition test (whole-cell patch clamp, Qpatch); assay type: cell-based; conditions: initial concentration 30 μM, 6 concentration points
T1 construct: expressed in transfected cells; host or cells: HEK293, cultured under G418 selection
Procedure: The BEK293 cells were cultured in a DiVEM medium containing […] and 0.8 mg/mL G418 at 37° C. with 5% o CO2. The cells were digested by TrypLE™ Express and centrifuged. The cell density was adjusted to 2×10^6 cells/mL. The cells were gently mixed for 15-20 min using a shaker equilibrated at room temperature, and subjected to patch clamping on a machine. The medium of the prepared cells was replaced with extracellular fluid. The intracellular fluid and the extracellular fluid were taken from the fluid pool, and respectively added to the intracellular fluid pool and the cell and the test substance pool of the QPlate chip. The voltage stimulation of the whole-cell hERG potassium current was recorded by the whole-cell patch clamp, and the test data was collected and stored by Qpatch. The compound was diluted 3-fold at an initial concentration of 30 μM, and 6 concentration points were set, with each drug concentration being set for two administrations over a period of at least 5 min. The current detected in compound-free extracellular fluid for each cell was served as its own control group, and the detection was repeated at least twice independently using two cells per concentration. All electrophysiological experiments were performed at room temperature.
For data analysis, the current acted for each drug concentration and the current of the blank control were standardized
and then the inhibition rate corresponding to each drug concentration was calculated
The mean and standard error were calculated for each concentration, and the half maximal inhibitory concentration of each compound was calculated:
The dose-dependent effect was fitted non-linearly using the above equation, wherein Y represents the inhibition rate, C represents the concentration of the test substance, IC50 is the half maximal inhibitory concentration, and HillSlope represents the Hill coefficient. Curve fitting and calculation of IC50 were performed by Graphpad software.

[4] = test system: SDMA in human colon cancer cell line HCT116; test: Cell symmetric dimethylarginine (SDMA) test, In-cell Western, HCT116 (MTAP wild-type); assay type: cell-based; conditions: Homo sapiens, HCT-116, 96 h
Procedure, shortened: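 SDMA level, an indirect readout of cellular MAT2A inhibition, measured by In-cell Western as background-subtracted 800/700 nm signal against DRAQ5. Cells exposed 4 days to six 1:4-diluted doses from 6 μM; inhibition relative to DMSO, IC50 from sigmoidal fit.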

[5] = test system: HCT116-MTAP wild-type (+/+)-cell strain; test: Tumor cell proliferation inhibition assay (CellTiter-Glo), HCT116-MTAP wild-type (+/+); assay type: cell-based; conditions: Homo sapiens, 120 h, 5-day treatment
Procedure, shortened: as §1

[6] = Saturation solubility of samples in FaSSIF solution; assay type: physicochemical; conditions: FaSSIF pH 6.5, room temperature overnight
Procedure: About 0.21 g of sodium hydroxide, about 2.24 g of sodium dihydrogen phosphate dihydrate, and 3.09 g of sodium chloride were weighed out and dissolved in 500 mL of water, and then the pH was adjusted to 6.5 with 1 N sodium hydroxide or 1 N hydrochloric acid. 112 mg of FaSSIF solid was weighed out and placed in a 50 mL volumetric flask, and the above buffer was added for dissolution, diluted to volume, mixed well, and left to stand at room temperature for 2 h or more.
• Test sample: about 1 mg of the test sample was taken, and 1 mL of FaSSIF solution was added. The mixture was stirred at room temperature overnight and centrifuged, and the supernatant was collected and injected for analysis. • Control substance solution: about 1.5 mg of the test sample was precisely weighed out and placed in a 50 mL volumetric flask, and DMF was added for dissolution, diluted to volume, and mixed well.
• Mobile phase A: 1000 mL of purified water was accurately weighed out, 1 mL of formic acid was added, and the mixture was mixed well and degassed with ultrasonic. • Mobile phase B: acetonitrile
The peak of the main component of the control substance and the peak of the test substance consistent with the retention time of the peak of the main component of the control substance were integrated, and the concentration thereof in the FaSSIF solution was calculated according to external standard method.

[7] = molecular target: MAT2A recombinant protein (Homo sapiens, UniProt P31153); test: MAT2A inhibitory activity (malachite green colorimetric enzyme assay); assay type: biochemical
Procedure, shortened: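 Compounds tested over 10 points, 3-fold dilutions, top final concentration 1000 nM. Enzyme reaction: MAT2A, L-methionine, ATP, room temperature, 60 min, in HEPES pH 7.5 buffer with KCl, MgCl2 and DTT; inorganic phosphate read colorimetrically (malachite green, A630). Inhibition vs log concentration fitted for IC50.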

[8] = Pharmacokinetic test in rats (IV and PO); assay type: in vivo; conditions: rat, plasma, SD rats; for half-life: read-out: T½ (converted)
[9] = test system: Human colorectal adenocarcinoma cells HCT116-MTAP-KO; test: Mouse xenograft tumor pharmacodynamic model, HCT116-MTAP-KO; assay type: in vivo; conditions: PO 200 mg/kg once a day, 28 days of administration
Procedure: (§2) In this example, the in vivo efficacy of the compound in a mouse xenograft tumor model after intragastric (PO) administration was tested.
Human colorectal adenocarcinoma cells HCT116-MTAP-KO were cultured in monolayer in vitro under the condition of McCoy's 5A medium containing 10% fetal bovine serum and 1% penicillin and streptomycin, and the culture was carried out at 37° C. with 5% CO2. The cells were digested with trypsin three times a week for passaging. When the saturation degree of the cells was 80-90%, the cells were collected, counted and inoculated. 0.1 mL (5×10^6 cells) of HCT116-MTAP-KO cells were subcutaneously inoculated on the right back of each mouse. On day 16 after inoculation of the cells, the mean tumor volume reached 154 mm^3. The mice were randomly grouped for administration and intragastrically dosed once daily. Changes in body weight and tumor volume were recorded. After a certain number of days of administration, the experiment was ended. Tumor volume changes and mouse body weight changes were counted and analyzed. AG270 (CAS: 2201056-66-6) was the positive control compound.

[10] = test system: Human pancreatic cancer cells KP-4; test: Mouse xenograft tumor pharmacodynamic model, KP-4; assay type: in vivo; conditions: KP-4 xenograft, PO 200 mg/kg once a day, 29 days of administration
Procedure: as §2
Human pancreatic cancer cells KP-4 were cultured in monolayer in vitro under the condition of 1640 medium containing […] and […] and streptomycin, and the culture was carried out at 37° C. with 5% CO2. The cells were digested with trypsin three times a week for passaging. When the saturation degree of the cells was 80-90%, the cells were collected, counted and inoculated. 0.1 mL (5×10^6 cells) of KP-4 cells were subcutaneously inoculated on the right back of each mouse. On day 34 after inoculation of the cells, the mean tumor volume reached 154 mm^3. The mice were randomly grouped for administration and intragastrically dosed once daily. Changes in body weight and tumor volume were recorded. After 29 days of administration, the experiment was ended. Tumor volume changes and mouse body weight changes were counted and analyzed. AG270 (CAS: 2201056-66-6) was the positive control compound.

[11] = IC50 score class, read-out: Cell 96 h SDMA Inhibition (HCT116-MTAP−/−) (score)
[12] = read-out: Cell 96 h SDMA Inhibition (HCT116-MTAP−/−)
[13] = HCT116-MTAP-knockout (−/−) cells, IC50 score, read-out: Tumor cell 5-day relative growth inhibition (HCT116-MTAP−/−) (nM), score
[14] = HCT116-MTAP-knockout (−/−) cells, IC50 value, read-out: Tumor cell 5-day relative growth inhibition (HCT116-MTAP−/−)
[15] = IC50 score class, read-out: Cell 96 h SDMA Inhibition (HCT116-MTAP+/+) (score)
[16] = read-out: Cell 96 h SDMA inhibition (HCT116-MTAP+/+)
[17] = HCT116-MTAP wild-type (+/+) cells, IC50 score, read-out: Tumor cell 5-day relative growth inhibition (HCT116-MTAP+/+) (nM), score
[18] = HCT116-MTAP wild-type (+/+) cells, IC50 value, read-out: Tumor cell 5-day relative growth inhibition (HCT116-MTAP+/+)
[19] = IC50 score class, read-out: MAT2A Inhibition (score)

Sequence of MAT2A recombinant protein (P31153 whole entry): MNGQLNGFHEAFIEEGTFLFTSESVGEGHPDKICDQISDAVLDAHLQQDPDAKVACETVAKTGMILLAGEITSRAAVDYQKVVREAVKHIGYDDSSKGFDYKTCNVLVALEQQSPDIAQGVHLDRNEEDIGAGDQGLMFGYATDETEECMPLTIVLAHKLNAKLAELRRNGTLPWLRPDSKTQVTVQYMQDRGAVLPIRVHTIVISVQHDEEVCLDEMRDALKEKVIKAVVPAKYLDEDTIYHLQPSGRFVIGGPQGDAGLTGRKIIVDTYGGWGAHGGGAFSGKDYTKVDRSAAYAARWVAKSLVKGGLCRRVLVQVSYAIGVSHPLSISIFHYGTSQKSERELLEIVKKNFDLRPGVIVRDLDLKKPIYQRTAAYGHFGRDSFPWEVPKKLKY
T1 sequence (Q12809 whole entry): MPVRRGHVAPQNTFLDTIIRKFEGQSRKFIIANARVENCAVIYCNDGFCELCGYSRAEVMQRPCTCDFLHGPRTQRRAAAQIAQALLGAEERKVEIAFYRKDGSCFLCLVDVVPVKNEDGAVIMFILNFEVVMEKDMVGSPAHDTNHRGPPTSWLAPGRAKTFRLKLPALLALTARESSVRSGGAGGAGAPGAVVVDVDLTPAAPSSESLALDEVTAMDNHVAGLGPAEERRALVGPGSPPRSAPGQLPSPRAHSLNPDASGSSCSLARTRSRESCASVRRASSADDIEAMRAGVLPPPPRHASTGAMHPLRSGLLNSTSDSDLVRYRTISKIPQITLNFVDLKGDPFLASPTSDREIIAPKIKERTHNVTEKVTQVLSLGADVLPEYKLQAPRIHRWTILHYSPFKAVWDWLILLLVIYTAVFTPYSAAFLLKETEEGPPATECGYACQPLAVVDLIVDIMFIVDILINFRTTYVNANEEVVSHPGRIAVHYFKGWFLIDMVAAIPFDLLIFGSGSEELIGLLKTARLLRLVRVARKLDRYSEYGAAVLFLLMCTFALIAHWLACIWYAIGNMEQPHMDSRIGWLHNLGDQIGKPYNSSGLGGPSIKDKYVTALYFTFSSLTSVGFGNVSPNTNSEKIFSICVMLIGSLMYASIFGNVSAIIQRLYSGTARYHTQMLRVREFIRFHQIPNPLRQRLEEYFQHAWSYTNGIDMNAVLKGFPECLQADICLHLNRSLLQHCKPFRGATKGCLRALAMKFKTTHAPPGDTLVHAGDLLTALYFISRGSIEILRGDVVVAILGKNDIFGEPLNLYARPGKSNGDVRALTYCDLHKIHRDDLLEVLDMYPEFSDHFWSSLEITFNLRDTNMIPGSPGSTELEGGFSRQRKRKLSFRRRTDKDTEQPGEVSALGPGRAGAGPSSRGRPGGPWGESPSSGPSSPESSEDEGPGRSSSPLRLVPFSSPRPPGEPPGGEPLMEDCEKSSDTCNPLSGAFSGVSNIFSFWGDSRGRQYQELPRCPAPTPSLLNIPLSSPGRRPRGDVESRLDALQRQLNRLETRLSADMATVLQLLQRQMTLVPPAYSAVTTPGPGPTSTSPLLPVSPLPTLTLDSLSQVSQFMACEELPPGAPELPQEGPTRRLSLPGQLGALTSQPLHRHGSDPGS

- AUC ([1]; IV 2 mg/kg): 7.43 µM·h
- clearance ([1]; IV 2 mg/kg): 12.8 mL/min/kg
- half-life ([1]; IV 2 mg/kg): 0.78 h
- Vd ([1]; IV 2 mg/kg, read-out: Vz): 0.9 L/kg
- AUC ([1]; PO 10 mg/kg): 65 µM·h
- half-life ([1]; PO 10 mg/kg): 0.95 h
- IC50 [2, 11]: < 200 nM
- IC50 [2, 12]: 76.9 nM
- IC50 [3, 13]: < 500 nM
- IC50 [3, 14]: 138 nM
- IC50 (DOHH-2 cell strain; IC50 score, read-out: Tumor cell 5-day relative growth inhibition (DOHH-2) (nM), score): 500 to 2000 nM
- IC50 (DOHH-2 cell strain; IC50 value, read-out: Tumor cell 5-day relative growth inhibition (DOHH-2)): 640 nM
- IC50 [4, 15]: 200 to 1000 nM
- IC50 [4, 16]: 480 nM
- IC50 [5, 17]: 500 to 2000 nM
- IC50 [5, 18]: 1680 nM
Compound: Cn1cc2c(n1)c(=O)n(-c1cccnc1)c1nc(C(F)(F)F)ccc21 [Compound B72]
- IC50 (hERG potassium current): > 30000 nM

- FaSSIF (pH = 6.5) (μg/mL) [6]: 7.4 μg/mL
- IC50 [7, 19]: < 100 nM
- IC50 ([7]; read-out: MAT2A Inhibition): 99.4 nM
- IC50 [3, 13]: ≥ 2000 nM
- IC50 [3, 14]: > 10000 nM
- IC50 [5, 17]: ≥ 2000 nM
- IC50 [5, 18]: > 10000 nM
Compound: Cn1cc2c(n1)c(=O)n(-c1ccc(OC(F)F)cc1)c1nc(C(F)(F)F)ccc21 [Compound B188]

- AUC ([8]; IV 1 mg/kg): 21 µM·h
- clearance ([8]; IV 1 mg/kg): 2 mL/min/kg
- bioavailability ([8]; IV 1 mg/kg, PO 5 mg/kg): 116%
- half-life ([8]; IV 1 mg/kg): 14 h
- AUC ([8]; PO 5 mg/kg): 128 µM·h
- half-life ([8]; PO 5 mg/kg): 11.6 h
- IC50 [2, 11]: < 200 nM
- IC50 [2, 12]: 4.3 nM
- IC50 [7, 19]: < 100 nM
- IC50 ([7]; read-out: MAT2A Inhibition): 6 nM
- IC50 ([3]; HCT116-MTAP−/− cells, IC50 class score, read-out: Tumor cell 5-day relative growth inhibition (HCT116-MTAP−/−) (nM), score): < 500 nM
- IC50 ([3]; HCT116-MTAP−/− cells, read-out: Tumor cell 5-day relative growth inhibition (HCT116-MTAP−/−)): 260 nM
- IC50 [4, 15]: > 3000 nM
- IC50 [4, 16]: > 10000 nM
- IC50 ([5]; HCT116-MTAP+/+ cells, IC50 class score, read-out: Tumor cell 5-day relative growth inhibition (HCT116-MTAP+/+) (nM), score): ≥ 2000 nM
- IC50 ([5]; HCT116-MTAP+/+ cells, read-out: Tumor cell 5-day relative growth inhibition (HCT116-MTAP+/+)): > 10000 nM
Compound: O=c1c2n[nH]cc2c2cc(F)c(Cl)cc2n1-c1cccnc1C1CC1 [Compound B425]

Compound: AG270 [reference compound]
- Tumor growth inhibition percentage (TGI) [9]: once a day TGI = 33.82%
- Tumor growth inhibition percentage (TGI) [10]: once a day TGI = 57.48%
